Data on 17 compounds can be found in patent US9156839B2, “Fused bicyclic sulfamoyl derivatives and the use thereof as medicaments for the treatment of hepatitis B” (JANSSEN SCIENCES IRELAND UC, priority 2012, dated 2015).

Common to all, as to assay type: cell-based
The test system of data set [1] is HBV. In words: Anti-HBV activity in HepG2.2.15 stable transfected cell line, HBV DNA from secreted virions by realtime PCR. The settings on record: Hepatitis B virus, read-out: HBV - HepG2.15.
The subject of data set [2] is HBV. In words: Anti-HBV activity in HepG2.117 inducible HBV producing cell line (Tet-off), intracellular HBV DNA by realtime PCR. The settings on record: Hepatitis B virus, read-out: HepG2 117 EC50.
A short description of data set [3]: Cytotoxicity in HepG2 cells, Resazurin assay. The following applies: human, 4 days incubation, Resazurin viability. As for the experimental part:
Cytotoxicity of the compounds was also tested using HepG2 cells, incubated for 4 days in the presence of compounds. The viability of the cells was assessed using a Resazurin assay.
On the technique in general: The colour change of resazurin is a common sign of viable cells or microbes.

[4] abbreviates: 144 h, HepG2.2.15 cells, 6 days of treatment, HBV DNA from secreted virions.
The mark [5] stands for this setting: 72 h, HepG2.117 cells, 3 days of treatment, intracellular HBV DNA.

For `O=S(=O)(NC1CCCCC1)c1ccc2[nH]nc(Nc3ccc(F)cc3)c2c1` [Compound 3], the EC50 in data set [1] (setting [4]) stood at 1 µM; in data set [2] (setting [5]), 4.6 µM. For the same compound, the CC50 at 4 days in data set [3] was above 25 µM.
For the compound `O=S(=O)(NC1CCCCC1)c1ccc2onc(Nc3ccc(F)cc3)c2c1` [Compound 4], the EC50 in data set [1] (HepG2.2.15, 144 h) worked out at 0.74 µM; in data set [2] (HepG2.117, 72 h), 1.2 µM. For the same compound, the CC50 at 4 days in data set [3] is above 25 µM.
For `O=S(=O)(NC1CCCC1)c1ccc2[nH]nc(Nc3ccc(F)cc3)c2c1` [Compound 5], the EC50 in data set [1] (setting [4]) came out at 1 µM; in data set [2] (setting [5]), 1.8 µM. This compound registered a CC50 at 4 days in data set [3] above 25 µM.
Taken in the same sequence, the figures for `Cn1nc(Nc2ccc(F)cc2)c2cc(S(=O)(=O)NC3CCCC3)ccc21` [Compound 6] were 0.49 µM, 0.82 µM and above 25 µM.
Taken in the same sequence, the figures for `CC(C)n1nc(Nc2ccc(F)cc2)c2cc(S(=O)(=O)NC3CCCC3)ccc21` [Compound 7] were above 50 µM, above 25 µM and above 25 µM.
`O=S(=O)(NC1CCCC1)c1ccc2c(c1)c(Nc1ccc(F)cc1)nn2C1CC1` [Compound 8]: the EC50 came out at 0.21 µM in data set [1] (setting [4]) and 0.62 µM in data set [2] (setting [5]). This compound gave a CC50 at 4 days in data set [3] above 25 µM.
The corresponding values for `CC(=O)n1nc(Nc2ccc(F)cc2)c2cc(S(=O)(=O)NC3CCCC3)ccc21` [Compound 9] are above 50 µM, 18.4 µM and above 25 µM.
Turning to `COC(=O)n1nc(Nc2ccc(F)cc2)c2cc(S(=O)(=O)NC3CCCC3)ccc21` [Compound 10], the EC50 in data set [1] (setting [4]) was 46.5 µM; in data set [2] (setting [5]), above 25 µM. The compound also returned a half-maximal cytotoxic concentration (CC50) at 4 days in data set [3] above 25 µM.
`O=S(=O)(N[C@H]1CCOC1)c1ccc2[nH]nc(Nc3ccc(F)c(F)c3)c2c1` [Compound 11]: the EC50 in data set [1] (setting [4]) was found to be 3.3 µM; in data set [2] (setting [5]), 12.4 µM. Besides, the CC50 at 4 days in data set [3] is above 25 µM.
Taken in the same sequence, the figures for `Cc1cc(Nc2n[nH]c3ccc(S(=O)(=O)N[C@H]4CCOC4)cc23)ccc1F` [Compound 12] were 5.2 µM, above 25 µM and above 25 µM.
For the compound `CC(C)NS(=O)(=O)c1ccc2[nH]nc(Nc3ccc(F)c(F)c3)c2c1` [Compound 13], the EC50 in data set [1] (setting [4]) was 8.9 µM; in data set [2] (setting [5]) it was above 25 µM. Also, the CC50 at 4 days in data set [3] was above 25 µM.
Turning to `Cc1cc(Nc2nn(C)c3ccc(S(=O)(=O)N[C@H]4CCOC4)cc23)ccc1F` [Compound 14], the figures for the EC50 in data set [1] (setting [4]) and in data set [2] (setting [5]) were 1.1 µM and 8.5 µM, respectively. Further, the CC50 at 4 days in data set [3] is above 25 µM.
`CC(C)NS(=O)(=O)c1ccc2c(c1)c(Nc1ccc(F)c(C(F)F)c1)nn2C` [Compound 15]: the EC50 in data set [1] (setting [4]) is 0.44 µM; in data set [2] (setting [5]), 2.8 µM. Also, the CC50 at 4 days in data set [3] is above 25 µM.
`Cn1nc(Nc2ccc(F)c(C(F)F)c2)c2cc(S(=O)(=O)N[C@H]3CCOC3)ccc21` [Compound 16]: the figures for the EC50 in data set [1] (setting [4]) and in data set [2] (setting [5]) were 1.3 µM and 4.5 µM, respectively. The compound also displayed a cytotoxic concentration (CC50) at 4 days in data set [3] above 25 µM.
Regarding `CC(C)NS(=O)(=O)c1ccc2cnc(Nc3ccc(F)c(C(F)F)c3)n2c1` [Compound 17], the EC50 in data set [1] (setting [4]) stood at 0.56 µM; in data set [2] (setting [5]), 14.2 µM. The CC50 at 4 days in data set [3] was above 25 µM.
In the case of `Cc1cc(Nc2ncc3ccc(S(=O)(=O)N[C@H]4CCOC4)cn23)ccc1F` [Compound 18], the EC50 was 1.7 µM in data set [1] (setting [4]) and above 25 µM in data set [2] (setting [5]). The same compound gave a CC50 at 4 days in data set [3] above 25 µM.
In the case of `Cc1cc(Nc2nnc3ccc(S(=O)(=O)NC(C)C)cn23)ccc1F` [Compound 19], the EC50 in data set [1] (setting [4]) came out at 1.2 µM; in data set [2] (setting [5]), 3.4 µM. In addition, the CC50 at 4 days in data set [3] is above 25 µM.

In general, CC50 refers to the concentration at which the toxic effect on the cells reaches its halfway point. Low readings indicate harm at low concentration, high ones better tolerance by the cells.
